# Laboratory results published in paper PMC5553193 (Journal of the American Chemical Society, 2015).
# Residue numbers refer to the chain shown, from its start. pKd: −log10 of the molar value. Peptide text beside a SMILES is read from it. * marks the point of attachment. X1 = O=C(C=NOCCO[C@H]1O[C@H](CO)[C@@H](O)[C@H](O)[C@@H]1O)*
# Experiments:
# [1] = biological target: T1, DC-SIGN (Homo sapiens, UniProt Q9NNX6); experiment: ESI-MS binding assay with DC-SIGN
# T1 sequence (Q9NNX6 1-404): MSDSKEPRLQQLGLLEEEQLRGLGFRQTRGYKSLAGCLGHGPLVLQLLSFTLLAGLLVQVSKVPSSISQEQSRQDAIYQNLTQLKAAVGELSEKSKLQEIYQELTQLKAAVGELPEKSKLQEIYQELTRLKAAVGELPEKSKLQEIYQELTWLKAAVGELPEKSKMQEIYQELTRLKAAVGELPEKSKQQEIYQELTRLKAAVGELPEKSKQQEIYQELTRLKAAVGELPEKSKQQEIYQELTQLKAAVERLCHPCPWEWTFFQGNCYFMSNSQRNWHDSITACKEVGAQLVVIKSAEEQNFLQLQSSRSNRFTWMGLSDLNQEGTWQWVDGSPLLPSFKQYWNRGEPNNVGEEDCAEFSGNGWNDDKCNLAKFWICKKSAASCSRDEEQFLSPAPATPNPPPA
# [2] = biological target: T2, ConA (Canavalia ensiformis, UniProt P02866); format: binding
# [3] = biological target: T3, LcH (Lens culinaris, UniProt P02870); experiment: ITC with LcH; format: binding
# T3 sequence (P02870 31-211 limits assumed): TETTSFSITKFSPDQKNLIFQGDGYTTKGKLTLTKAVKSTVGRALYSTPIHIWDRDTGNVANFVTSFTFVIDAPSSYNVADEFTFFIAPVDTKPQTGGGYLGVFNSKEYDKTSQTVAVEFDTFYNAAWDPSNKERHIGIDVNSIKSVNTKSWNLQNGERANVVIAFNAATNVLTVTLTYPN
# T3 sequence (P02870 218-269 limits assumed): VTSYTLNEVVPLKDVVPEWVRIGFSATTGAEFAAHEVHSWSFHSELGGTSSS
# [4] = biological target: T4, PSA (Pisum sativum, UniProt P02867); experiment: ITC with PSA; format: binding
# T4 sequence (P02867 31-211 limits assumed): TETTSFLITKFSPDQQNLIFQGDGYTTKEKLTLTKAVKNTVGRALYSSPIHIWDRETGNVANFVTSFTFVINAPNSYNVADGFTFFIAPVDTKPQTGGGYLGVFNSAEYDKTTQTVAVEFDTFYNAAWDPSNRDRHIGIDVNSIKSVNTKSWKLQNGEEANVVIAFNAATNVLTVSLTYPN
# T4 sequence (P02867 218-269 limits assumed): T3 sequence (P02870 218-269 limits assumed) with N7S, E8D, P11S, F32Y, H38L, G47S
# [5] = biological target: T1, DC-SIGN; conditions: read-out: KD with DC-SIGN; literature value; cited from earlier work
# [6] = biological target: T2, ConA; conditions: read-out: KD with ConA; literature value; cited from earlier work
compound,measurement,setting,value
NC(=O)[C@H](CC(=O)O)NC(=O)[C@H](Cc1ccc(O)cc1)NC(=O)[C@H](Cc1c[nH]c2ccccc12)NC(=O)C=NOCCO[C@H]1O[C@H](CO)[C@@H](O)[C@H](O)[C@@H]1O [L20],enhanced affinity for DC-SIGN,[1],enhanced affinity
"CC[C@H](C)[C@H](NC(=O)[C@H](CC(N)=O)NC(=O)[C@H](CC(=O)O)NC(=O)[C@H](Cc1ccccc1)NC(=O)[C@H](CC(C)C)NC(=O)[C@H](CC(=O)O)NC(=O)[C@H](Cc1ccc(O)cc1)NC(=O)[C@H](Cc1c[nH]c2ccccc12)NC(=O)C=NOCCO[C@H]1O[C@H](CO)[C@@H](O)[C@H](O)[C@@H]1O)C(=O)N[C@@H](CC(N)=O)C(=O)N[C@@H](CO)C(N)=O [L30, Man-WYDLFDNINS] (X1-WYDLFDNINS-NH2; N-terminus assumed)",fold enhancement in affinity (lower KD) over MeMan,[2],33 fold
"CC(C)C[C@H](NC(=O)[C@H](CC(=O)O)NC(=O)[C@H](Cc1ccc(O)cc1)NC(=O)[C@H](Cc1c[nH]c2ccccc12)NC(=O)C=NOCCO[C@H]1O[C@H](CO)[C@@H](O)[C@H](O)[C@@H]1O)C(=O)N[C@@H](Cc1ccccc1)C(N)=O [L37, Man-WYDLF] (X1-WYDLF-NH2; N-terminus assumed)",fold enhancement of binding of monosaccharide moiety by peptide fragment,[2]; ITC,35 fold
same,fold enhancement of binding of monosaccharide moiety by peptide fragment,[3],2 fold
same,fold enhancement of binding of monosaccharide moiety by peptide fragment,[4],2 fold
"OC[C@H]1O[C@H](OC[C@H]2O[C@H](O)[C@@H](O)[C@@H](O[C@H]3O[C@H](CO)[C@@H](O)[C@H](O)[C@@H]3O)[C@@H]2O)[C@@H](O)[C@@H](O)[C@@H]1O [Man3, α-Man-(1→3)-[α-Man-(1→6)]-α-Man]",pKd,[5],3.23
same,pKd,[6],5.59
